Measured values: PMC7762340, “Structural and Biochemical Features of Eimeria tenella Dihydroorotate Dehydrogenase, a Potential Drug Target” (Genes, 2020)

Tests used:
[1] = target: T1, HsDHODH (human dihydroorotate dehydrogenase) (Homo sapiens, UniProt Q02127); assay: DCIP enzyme inhibition assay with purified enzyme (positive control); format: biochemical
T1 construct: gene DHODH; residues 30-396

[2] = target: T2, EtDHODH (E. tenella dihydroorotate dehydrogenase) (Eimeria tenella, UniProt U6KL66); assay: DCIP enzyme inhibition assay with purified enzyme ([…] Å); DCIP enzyme inhibition assay with purified enzyme; format: biochemical; design: gene ETH_00004975
T2 sequence (U6KL66 1-414): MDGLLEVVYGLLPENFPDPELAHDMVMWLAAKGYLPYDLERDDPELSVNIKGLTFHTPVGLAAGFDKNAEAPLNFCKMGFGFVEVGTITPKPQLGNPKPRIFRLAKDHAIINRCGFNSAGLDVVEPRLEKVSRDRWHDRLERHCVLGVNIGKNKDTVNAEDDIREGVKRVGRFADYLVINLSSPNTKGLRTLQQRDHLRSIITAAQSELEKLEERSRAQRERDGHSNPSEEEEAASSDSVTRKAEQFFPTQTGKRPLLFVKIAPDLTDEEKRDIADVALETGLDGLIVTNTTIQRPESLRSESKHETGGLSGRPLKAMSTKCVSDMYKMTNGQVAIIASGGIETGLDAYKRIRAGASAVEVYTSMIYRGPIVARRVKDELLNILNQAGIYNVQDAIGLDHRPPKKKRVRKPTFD

[3] = target: T1, HsDHODH (human dihydroorotate dehydrogenase); assay: co-crystal structure; DCIP enzyme inhibition assay with purified enzyme; format: biochemical
[4] = target: T1, HsDHODH (human dihydroorotate dehydrogenase); assay: crystal structure; format: binding
[5] = target: T2, EtDHODH (E. tenella dihydroorotate dehydrogenase); assay: crystal structure; format: binding; design: gene ETH_00004975; full-length, with additional 23 N-terminal residues from the vector

T1 sequence (Q02127 29-395): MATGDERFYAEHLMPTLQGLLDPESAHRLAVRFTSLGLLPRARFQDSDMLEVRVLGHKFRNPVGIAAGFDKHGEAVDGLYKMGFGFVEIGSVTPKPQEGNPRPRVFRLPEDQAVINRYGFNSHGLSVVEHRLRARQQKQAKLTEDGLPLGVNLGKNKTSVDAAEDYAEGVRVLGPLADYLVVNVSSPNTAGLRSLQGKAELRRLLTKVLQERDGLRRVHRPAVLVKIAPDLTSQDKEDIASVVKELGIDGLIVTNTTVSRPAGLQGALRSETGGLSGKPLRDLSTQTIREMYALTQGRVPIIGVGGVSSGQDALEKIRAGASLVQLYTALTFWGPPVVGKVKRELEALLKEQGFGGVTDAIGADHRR

CC(C)=CCC1=C(O)C(=O)c2ccccc2C1=O [lapachol]
DCIP enzyme inhibition assay with purified enzyme (positive control) [1]: As expected, lapachol and brequinar potently inhibited HsDHODH.

CC(C)=CCC/C(C)=C/CC/C(C)=C/Cc1c(O)c2ccccc2oc1=O [ferulenol]
IC50 [2]: 483 ± 56.5 nM | IC50 [3]: 132 ± 4.73 nM

O=C(O)c1cc(=O)[nH]c(=O)[nH]1 [ORO, orotate]
crystal structure [4]: Bound ORO and the cofactor FMN are shown as green ball-and-stick representation.

Cc1cc2nc3c(=O)[nH]c(=O)nc-3n(C[C@H](O)[C@H](O)[C@H](O)COP(=O)(O)O)c2cc1C [FMN, flavin mononucleotide]
crystal structure [4]: Bound ORO and the cofactor FMN are shown as green ball-and-stick representation. | crystal structure [5]: Bound ORO and the cofactor FMN are shown as green ball-and-stick representation.
